Data as given in patent US5223519A, “4-hydroxypyridine derivatives, useful for treating circulatory diseases” (Mercian Corporation, priority 1990, dated 1993).
Read-outs that look alike come from different tables or passages of the source.

Legend:
[1] = test system: norepinephrine- or KCl-contracted rat thoracic aorta; assay: Vasodilating activity: relaxation of contracted thoracic aorta helical strips; set-up: species or system Male Sprague-Dawley rats; conditions: for IC50: cumulative application, pH 7.4, 37° C.; for relaxation of the aorta compared with papaverine: vs papaverine, norepinephrine or KCl contraction
Protocol: Male Sprague-Dawley rats weighing 250-300 g were sacrificed by cervical dislocation and exsanguinated. The thoracic aorta was dissected out and helical strips, 2 mm wide and 10 mm long, were prepared. Each preparation was mounted in a 10 ml organ bath containing physiological saline solution (Krebs-Henzeleit solution, pH 7.4). The solution was gassed with 95% O2 - 5% CO2 at 37° C. and a resting tension of 0.5 g was applied. Tissues were allowed to equilibrate for at least 60 minutes before the application of test substances. The developed tension was measured isometrically with a force-displacement transducer and recorded on pen-recorder. Tissues had been contracted with 10^-7 M norepinephrine or isotonic 60 mM KCl and test substances were applied cumulatively.

blood pressure = assay: Depressor effect in anesthetized spontaneously hypertensive rats (i.v.); assay type: in vivo, Male spontaneously hypertensive rats (SHR rats); set-up: Vasodepression / Duration time: unit not given here; conditions: for Duration time / Vasodepression: injected into femoral vein
Protocol: Male spontaneously hypertensive rats (SHR rats), 25-31 weeks old, were anesthetized with 40 mg/kg of pentobarbital sodium injected intraperitoneally. For the measurement of blood pressure, a cannula was inserted into the left carotid artery and connected to a multipurpose polygraph through a pressure transducer. Each animal was allowed to equilibrate for at least 30 minutes before injection and test substances were injected into the femoral vein through a polyethylene tube.

ICR male mice = assay: Acute toxicity in mice (i.v.); assay type: in vivo; conditions: five mice per dose
Protocol: The acute toxicity of Mer-A2026A was determined in ICR male mice. Five mice were used at each dose.

[2] = 10^-7 M norepinephrine contraction, read-out: IC50 Norepinephrine (concentration needed to induce a 50% decrease in norepinephrine-induced contraction)
[3] = isotonic 60 mM KCl contraction, read-out: IC50 Isotonic KCl (concentration needed to induce a 50% decrease in KCl-induced contraction)

Row | SMILES | IC50 [1, 2] [nM] | IC50 [1, 3] [nM] | relaxation of the aorta compared with papaverine [1] | Duration time (blood pressure; 10 μg/kg) | Vasodepression (blood pressure; 10 μg/kg) | Duration time (blood pressure; 30 μg/kg) | Vasodepression (blood pressure; 30 μg/kg) | Duration time (blood pressure; 100 μg/kg) | Vasodepression (blood pressure; 100 μg/kg) | depressor effect (in words) (blood pressure; SHR rats, i.v., refers to Table 3) | acute toxicity (survival) (ICR male mice; 250 μg/Kg intravenous) | acute toxicity (deaths) (ICR male mice; 500 μg/Kg intravenous) | solubility in commonly available organic solvents (Solubility) | solubility in water (Solubility) | Duration time (blood pressure; 1000 μg/kg) | Vasodepression (blood pressure; 1000 μg/kg)
1 | COc1cc(O)c(C)c(C/C=C(\C)C/C=C/C(C)=C/C(C)C(O)/C(C)=C/C(C)C)n1 (centres unmarked) [Mer-A2026A] | 200 | 1000 | more greatly relaxed the aorta than papaverine | 0.2 | 3.6 | 9.4 | 25.0 | 24.5 | 47.7 | markedly prolonged the duration time and decreased the blood pressure | all survived | sacrificed the one mouse | soluble | insoluble | – | –
2 | C/C=C(\C)C(O)C(C)/C=C(C)/C=C/C/C(C)=C/Cc1nc(OC)cc(O)c1C (centres unmarked) [Mer-A2026B] | 770 | 400 | more greatly relaxed the aorta than papaverine | – | – | – | – | – | – | – | – | – | soluble | insoluble | – | –
3 | COc1ccc(Cc2nccc3cc(OC)c(OC)cc23)cc1OC [Papaverine, reference compound] | 4700 | 17000 | – | – | – | – | – | – | – | – | – | – | – | – | 2.2 | 52.0
